For one molecule, inhibition results are on record in patent publication US11572590B2, “Methods for evaluating tumor cell spheroids using 3D microfluidic cell culture device” (Dana-Farber Cancer Institute, Inc., priority 2017, dated 2023).

Like-named read-outs stand apart in the source and are kept apart here.

Holding throughout (assay): SelectScreen Kinase Profiling, single point inhibition and IC50 for off-target kinases
Holding throughout (type): biochemical

The target of assay [1] is off-target kinases (Homo sapiens, UniProt Q9H3Y6). The settings on record: SRMS (Srm), ZLYTE, ATP Km app.
Sequence of off-target kinases (Homo sapiens, UniProt Q9H3Y6) (Q9H3Y6 whole entry): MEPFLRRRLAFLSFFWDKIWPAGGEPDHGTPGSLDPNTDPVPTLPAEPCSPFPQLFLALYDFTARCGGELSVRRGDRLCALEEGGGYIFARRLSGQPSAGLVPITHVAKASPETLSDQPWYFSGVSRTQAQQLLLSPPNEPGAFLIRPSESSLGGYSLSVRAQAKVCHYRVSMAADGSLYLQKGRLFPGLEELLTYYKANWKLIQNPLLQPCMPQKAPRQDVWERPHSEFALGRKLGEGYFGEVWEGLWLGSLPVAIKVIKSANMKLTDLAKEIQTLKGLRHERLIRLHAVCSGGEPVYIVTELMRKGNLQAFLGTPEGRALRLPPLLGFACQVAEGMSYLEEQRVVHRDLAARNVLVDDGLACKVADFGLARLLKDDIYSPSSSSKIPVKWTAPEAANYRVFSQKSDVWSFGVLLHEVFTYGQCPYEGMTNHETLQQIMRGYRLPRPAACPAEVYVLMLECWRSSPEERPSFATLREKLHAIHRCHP
The target in assay [2] is T1, off-target kinases (Homo sapiens, UniProt Q8TD19).
T1 sequence (Q8TD19 1-979): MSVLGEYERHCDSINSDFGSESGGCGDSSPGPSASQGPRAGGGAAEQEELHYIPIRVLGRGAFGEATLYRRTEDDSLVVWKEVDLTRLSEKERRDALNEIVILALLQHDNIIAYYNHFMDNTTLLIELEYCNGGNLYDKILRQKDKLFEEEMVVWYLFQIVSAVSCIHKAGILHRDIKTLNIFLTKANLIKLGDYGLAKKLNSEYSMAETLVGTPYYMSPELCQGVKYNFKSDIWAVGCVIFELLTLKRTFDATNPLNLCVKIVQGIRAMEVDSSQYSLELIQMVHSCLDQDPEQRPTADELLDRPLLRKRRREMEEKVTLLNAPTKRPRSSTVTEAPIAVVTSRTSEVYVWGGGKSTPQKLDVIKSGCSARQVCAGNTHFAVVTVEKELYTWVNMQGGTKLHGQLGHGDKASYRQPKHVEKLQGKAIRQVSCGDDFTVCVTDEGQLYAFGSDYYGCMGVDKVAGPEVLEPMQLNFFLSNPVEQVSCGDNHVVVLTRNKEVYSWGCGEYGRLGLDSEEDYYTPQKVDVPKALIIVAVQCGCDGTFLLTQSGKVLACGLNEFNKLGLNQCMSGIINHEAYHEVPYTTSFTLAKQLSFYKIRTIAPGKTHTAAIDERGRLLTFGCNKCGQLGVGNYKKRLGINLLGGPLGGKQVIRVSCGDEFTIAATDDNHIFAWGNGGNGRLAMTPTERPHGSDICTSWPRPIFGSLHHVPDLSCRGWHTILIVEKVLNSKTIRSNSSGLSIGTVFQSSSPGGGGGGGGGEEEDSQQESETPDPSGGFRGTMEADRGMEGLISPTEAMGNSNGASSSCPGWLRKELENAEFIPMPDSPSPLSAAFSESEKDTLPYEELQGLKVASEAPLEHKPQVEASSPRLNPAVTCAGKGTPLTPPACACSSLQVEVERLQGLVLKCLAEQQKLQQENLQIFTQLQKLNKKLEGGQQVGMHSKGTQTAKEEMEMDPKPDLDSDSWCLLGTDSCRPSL
The settings on record: NEK9, ATP Km app, ZLYTE.

For assay [3], the target named is off-target kinases (Homo sapiens, UniProt P09769). Particulars: FGR, ATP Km app, ZLYTE.
Sequence of off-target kinases (Homo sapiens, UniProt P09769) (P09769 whole entry): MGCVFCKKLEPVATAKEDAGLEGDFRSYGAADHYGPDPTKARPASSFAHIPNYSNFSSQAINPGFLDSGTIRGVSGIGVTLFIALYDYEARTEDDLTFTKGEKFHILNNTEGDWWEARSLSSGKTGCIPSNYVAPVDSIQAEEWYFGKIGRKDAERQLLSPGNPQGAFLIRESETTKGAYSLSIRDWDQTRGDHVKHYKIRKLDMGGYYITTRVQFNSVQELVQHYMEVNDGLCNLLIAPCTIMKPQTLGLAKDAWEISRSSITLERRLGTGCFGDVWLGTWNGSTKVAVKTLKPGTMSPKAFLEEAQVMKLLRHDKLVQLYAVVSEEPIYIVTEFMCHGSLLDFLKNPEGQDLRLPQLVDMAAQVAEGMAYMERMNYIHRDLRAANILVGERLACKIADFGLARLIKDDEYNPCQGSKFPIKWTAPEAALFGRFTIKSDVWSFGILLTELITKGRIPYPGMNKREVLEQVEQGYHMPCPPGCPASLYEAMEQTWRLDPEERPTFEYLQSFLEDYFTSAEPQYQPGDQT
Assay [4] has as its target off-target kinases (Homo sapiens, UniProt P78527).
For assay [5], the target named is off-target kinases (Homo sapiens, UniProt P04626).
For assay [6], the target named is off-target kinases (Homo sapiens, UniProt P48736). The settings on record: PIK3CG (p110 gamma), Adapta, ATP Km app.
Assay [7] addresses off-target kinases (Homo sapiens, UniProt Q02763, Y1108F). Particulars: TEK (TIE2) Y1108F, LanthaScreen Binding.
The target in assay [8] is off-target kinases (Homo sapiens, UniProt P48730). Particulars: CSNK1D (CK1 delta), ZLYTE, ATP Km app.

Sequence of off-target kinases (Homo sapiens, UniProt P78527) (P78527 whole entry): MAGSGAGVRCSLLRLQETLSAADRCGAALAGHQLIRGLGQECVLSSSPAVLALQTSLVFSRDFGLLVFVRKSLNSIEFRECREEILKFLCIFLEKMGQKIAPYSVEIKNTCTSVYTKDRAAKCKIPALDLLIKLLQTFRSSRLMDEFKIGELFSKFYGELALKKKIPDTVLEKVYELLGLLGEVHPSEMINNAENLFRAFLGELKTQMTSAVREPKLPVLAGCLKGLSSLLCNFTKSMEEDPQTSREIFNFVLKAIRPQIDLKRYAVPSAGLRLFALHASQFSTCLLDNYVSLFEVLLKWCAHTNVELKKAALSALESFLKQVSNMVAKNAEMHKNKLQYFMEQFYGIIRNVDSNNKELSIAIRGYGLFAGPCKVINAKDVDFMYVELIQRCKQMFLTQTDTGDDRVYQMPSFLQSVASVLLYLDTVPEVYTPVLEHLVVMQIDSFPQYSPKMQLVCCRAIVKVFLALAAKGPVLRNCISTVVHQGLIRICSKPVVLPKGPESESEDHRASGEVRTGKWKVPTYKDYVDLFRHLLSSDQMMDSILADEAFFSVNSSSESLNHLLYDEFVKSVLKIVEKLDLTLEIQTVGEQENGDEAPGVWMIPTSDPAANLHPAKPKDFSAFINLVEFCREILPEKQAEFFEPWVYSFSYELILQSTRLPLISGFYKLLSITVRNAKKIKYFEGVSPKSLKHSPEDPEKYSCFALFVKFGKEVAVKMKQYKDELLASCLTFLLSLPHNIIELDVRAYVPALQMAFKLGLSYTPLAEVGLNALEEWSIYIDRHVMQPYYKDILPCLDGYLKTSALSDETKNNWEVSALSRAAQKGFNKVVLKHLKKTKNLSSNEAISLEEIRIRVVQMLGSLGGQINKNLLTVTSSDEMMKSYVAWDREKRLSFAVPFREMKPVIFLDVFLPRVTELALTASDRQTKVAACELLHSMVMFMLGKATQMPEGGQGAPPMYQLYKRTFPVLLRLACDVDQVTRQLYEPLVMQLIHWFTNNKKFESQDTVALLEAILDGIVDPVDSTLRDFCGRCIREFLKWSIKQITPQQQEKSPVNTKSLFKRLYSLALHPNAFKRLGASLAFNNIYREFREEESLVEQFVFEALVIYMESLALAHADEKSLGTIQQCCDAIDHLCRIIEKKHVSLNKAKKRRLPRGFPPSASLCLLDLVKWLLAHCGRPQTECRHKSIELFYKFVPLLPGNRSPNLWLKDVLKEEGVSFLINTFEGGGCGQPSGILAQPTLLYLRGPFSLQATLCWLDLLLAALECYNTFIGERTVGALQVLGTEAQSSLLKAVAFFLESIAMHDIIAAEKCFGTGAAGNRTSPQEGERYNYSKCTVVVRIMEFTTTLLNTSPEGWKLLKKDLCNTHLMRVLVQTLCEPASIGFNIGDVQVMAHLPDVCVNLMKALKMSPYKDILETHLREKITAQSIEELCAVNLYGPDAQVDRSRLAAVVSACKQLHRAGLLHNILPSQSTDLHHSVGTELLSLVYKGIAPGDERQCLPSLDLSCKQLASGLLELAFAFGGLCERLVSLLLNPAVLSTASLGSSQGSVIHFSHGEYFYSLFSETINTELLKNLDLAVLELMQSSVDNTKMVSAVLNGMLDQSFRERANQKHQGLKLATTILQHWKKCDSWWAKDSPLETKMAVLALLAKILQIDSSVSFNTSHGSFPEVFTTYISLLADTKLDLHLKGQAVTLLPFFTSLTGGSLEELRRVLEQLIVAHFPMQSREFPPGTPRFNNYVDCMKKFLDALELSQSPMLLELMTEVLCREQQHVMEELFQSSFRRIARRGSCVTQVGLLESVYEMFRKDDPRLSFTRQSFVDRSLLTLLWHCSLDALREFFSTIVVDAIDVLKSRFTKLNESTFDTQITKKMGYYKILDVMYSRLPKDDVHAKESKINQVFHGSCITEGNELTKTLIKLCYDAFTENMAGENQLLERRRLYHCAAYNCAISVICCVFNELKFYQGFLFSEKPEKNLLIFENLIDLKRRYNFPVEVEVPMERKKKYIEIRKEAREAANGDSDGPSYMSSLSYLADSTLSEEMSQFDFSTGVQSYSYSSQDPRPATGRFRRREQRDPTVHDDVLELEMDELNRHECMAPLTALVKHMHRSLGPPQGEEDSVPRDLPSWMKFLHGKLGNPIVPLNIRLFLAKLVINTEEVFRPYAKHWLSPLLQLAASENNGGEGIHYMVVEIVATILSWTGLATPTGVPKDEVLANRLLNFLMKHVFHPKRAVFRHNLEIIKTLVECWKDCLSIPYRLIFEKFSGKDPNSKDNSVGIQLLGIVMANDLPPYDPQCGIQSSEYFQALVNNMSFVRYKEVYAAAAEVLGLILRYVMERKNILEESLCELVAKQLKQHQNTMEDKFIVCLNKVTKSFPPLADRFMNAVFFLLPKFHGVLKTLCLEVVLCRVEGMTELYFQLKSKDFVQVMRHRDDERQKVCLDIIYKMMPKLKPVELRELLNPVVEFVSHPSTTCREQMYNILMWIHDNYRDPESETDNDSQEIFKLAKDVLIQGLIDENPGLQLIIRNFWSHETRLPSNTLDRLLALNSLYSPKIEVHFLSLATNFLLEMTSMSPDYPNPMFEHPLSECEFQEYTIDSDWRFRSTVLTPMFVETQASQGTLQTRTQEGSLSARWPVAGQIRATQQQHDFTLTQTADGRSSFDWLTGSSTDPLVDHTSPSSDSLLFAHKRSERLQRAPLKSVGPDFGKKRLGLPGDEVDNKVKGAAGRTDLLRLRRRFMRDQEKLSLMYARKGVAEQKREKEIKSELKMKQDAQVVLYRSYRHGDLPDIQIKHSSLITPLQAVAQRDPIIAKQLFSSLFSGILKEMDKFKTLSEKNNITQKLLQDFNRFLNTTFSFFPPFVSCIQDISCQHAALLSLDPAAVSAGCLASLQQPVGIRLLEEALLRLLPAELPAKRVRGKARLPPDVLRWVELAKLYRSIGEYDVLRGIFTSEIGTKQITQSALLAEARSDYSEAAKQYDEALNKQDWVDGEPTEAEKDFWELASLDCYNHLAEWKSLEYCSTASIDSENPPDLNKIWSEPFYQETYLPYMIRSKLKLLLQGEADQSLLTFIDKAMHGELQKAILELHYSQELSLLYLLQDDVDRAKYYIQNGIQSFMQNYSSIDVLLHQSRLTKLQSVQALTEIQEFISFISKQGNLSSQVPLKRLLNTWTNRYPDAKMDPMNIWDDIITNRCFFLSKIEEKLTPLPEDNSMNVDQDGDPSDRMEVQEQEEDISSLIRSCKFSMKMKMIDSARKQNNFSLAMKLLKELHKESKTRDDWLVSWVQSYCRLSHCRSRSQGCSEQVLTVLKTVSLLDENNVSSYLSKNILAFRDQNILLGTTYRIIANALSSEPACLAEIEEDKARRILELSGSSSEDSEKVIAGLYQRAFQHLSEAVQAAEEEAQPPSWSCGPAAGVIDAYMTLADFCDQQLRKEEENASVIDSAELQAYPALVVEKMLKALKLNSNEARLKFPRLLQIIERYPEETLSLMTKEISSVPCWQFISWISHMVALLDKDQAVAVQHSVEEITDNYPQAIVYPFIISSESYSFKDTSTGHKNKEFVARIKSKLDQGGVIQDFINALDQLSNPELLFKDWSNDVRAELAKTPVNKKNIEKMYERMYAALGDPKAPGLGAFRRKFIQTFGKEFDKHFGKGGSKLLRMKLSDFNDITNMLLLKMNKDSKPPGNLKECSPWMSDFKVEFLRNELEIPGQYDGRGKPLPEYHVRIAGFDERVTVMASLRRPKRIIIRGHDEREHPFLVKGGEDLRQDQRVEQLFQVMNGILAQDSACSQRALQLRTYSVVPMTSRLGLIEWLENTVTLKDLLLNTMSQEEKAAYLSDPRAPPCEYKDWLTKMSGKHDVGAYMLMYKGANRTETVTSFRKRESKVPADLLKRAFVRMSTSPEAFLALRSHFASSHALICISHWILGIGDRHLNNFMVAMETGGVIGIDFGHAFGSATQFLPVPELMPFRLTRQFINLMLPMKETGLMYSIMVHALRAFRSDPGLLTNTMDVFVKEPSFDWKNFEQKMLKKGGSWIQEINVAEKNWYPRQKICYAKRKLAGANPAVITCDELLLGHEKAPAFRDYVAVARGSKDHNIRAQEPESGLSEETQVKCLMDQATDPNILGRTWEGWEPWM

A word on the inhibition: it is the change of the read-out against control, counted positive when it falls. On to `N#Cc1cc(-c2ncnc(Nc3ccc(N4CCN(C5COC5)CC4)cc3)n2)ccc1OC1CCOCC1` [Compound 1, 5-(4-((4-(4-(oxetan-3-yl)piperazin-1-yl)phenyl)amino)-1,3,5-triazin-2-yl)-2-((tetrahydro-2H-pyran-4-yl)oxy)benzonitrile], for which the inhibition on off-target kinases [1] (read-out: % Inhibition 1) was determined as 5%; on off-target kinases [1] (read-out: % Inhibition 2), 3%; at off-target kinases [1] (read-out: % Inhibition Avg), 4%; on off-target kinases [2] (read-out: % Inhibition 1) it was 46%; on off-target kinases [2] (read-out: % Inhibition 2), 45%; at off-target kinases [2] (read-out: % Inhibition Avg) it was 46%. Further, the inhibition was 53% on off-target kinases [3] (read-out: % Inhibition 1); 53% on off-target kinases [3] (read-out: % Inhibition 2); 53% at off-target kinases [3] (read-out: % Inhibition Avg); 2% on off-target kinases [4] (DNA-PK, ZLYTE, ATP Km app, read-out: % Inhibition 1); -4% on off-target kinases [4] (DNA-PK, ZLYTE, ATP Km app, read-out: % Inhibition 2); -1% at off-target kinases [4] (read-out: % Inhibition Avg). Further, the inhibition is 0% at off-target kinases [5] (ERBB2 (HER2), ZLYTE, ATP Km app, read-out: % Inhibition 1); -3% on off-target kinases [5] (ERBB2 (HER2), ZLYTE, ATP Km app, read-out: % Inhibition 2); -1% at off-target kinases [5] (read-out: % Inhibition Avg); 11% on off-target kinases [6] (read-out: % Inhibition 1); 8% at off-target kinases [6] (read-out: % Inhibition 2); 9% at off-target kinases [6] (read-out: % Inhibition Avg). Also, the inhibition is 53% on off-target kinases [7] (read-out: % Inhibition 1); 52% on off-target kinases [7] (read-out: % Inhibition 2); 53% at off-target kinases [7] (read-out: % Inhibition Avg); -1% at off-target kinases [8] (read-out: % Inhibition 1); -5% at off-target kinases [8] (read-out: % Inhibition 2); -3% on off-target kinases [8] (read-out: % Inhibition Avg).
